Data on 40 molecules can be found in patent US20240174690A1, “ANNULATED 2-AMINO-3-CYANO THIOPHENES AND DERIVATIVES FOR THE TREATMENT OF CANCER” (BOEHRINGER INGELHEIM INTERNATIONAL GMBH, priority 2021, published 2024).

Series [1] has as its target CYP3A4 (Homo sapiens (Human), UniProt P08684). The series is described as follows: Mechanism based inhibition of CYP3A4 assay (MBI 3A4). Particulars: hydroxy-midazolam formation after 30 min vs 0 min preincubation, 25 uM, human liver microsomes. The format is in vitro ADME. An outline of the steps: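 Human CYP3A4 activity after 30 min vs 0 min preincubation with test compound; incubate then diluted 1:10 and midazolam added for a 15 min main incubation. Quenched with acetonitrile; hydroxy-midazolam quantified by LC/MS-MS and expressed as % of the 0 min preincubation formation.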
Background: Liver microsomes are a subcellular fraction often used to study metabolism.

Series [2] addresses KRAS (G12C)::SOS1 (Homo sapiens (Human), UniProt P01116, C118S/C51S/C80L/G12C). As to the kind of experiment: KRAS::SOS1 AlphaScreen binding assay, KRAS G12C. The procedure, abridged: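 Compounds (up to 100 μM, eleven fivefold dilutions in duplicate) were incubated 30 min with KRAS 1-169 (10 nM, or 7.5 nM for G12C), GST-SOS1 564-1049 (5 nM for G12D/G12C, 10 nM for others) and 10 μM GDP in PBS buffer with BSA and Tween. Donor/acceptor beads were then added for 60 min at room temperature, and IC50 came from a 4-parameter fit of the AlphaScreen signal.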
Background: In Alpha technology, singlet oxygen from a donor bead excites a nearby acceptor bead.

In series [3] the test system is LOVO cells. As to the kind of experiment: LOVO CTG proliferation assay (120 h) (CRC, G13D). It counts as cell-based. Particulars: Homo sapiens, CTG 120 h. The procedure, abridged: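 LOVO cells, 1000 per well in DMEM + 10% FCS, were plated overnight and then dosed with compound from DMSO stock. After 120 h at 37 °C, viability was read by CellTiter-Glo luminescence as a percentage of DMSO controls. IC50 was derived by four-parameter non-linear regression.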

Sequence of KRAS (G12C)::SOS1 (P01116 other isoform, or with tags, fused parts or gaps G12C/C51S/C80L/C118S): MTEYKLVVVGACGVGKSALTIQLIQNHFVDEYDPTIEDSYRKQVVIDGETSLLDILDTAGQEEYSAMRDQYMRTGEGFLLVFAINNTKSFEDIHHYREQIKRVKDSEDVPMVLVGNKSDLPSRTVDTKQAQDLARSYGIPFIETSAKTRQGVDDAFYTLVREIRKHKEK
Sequence of CYP3A4 (P08684 whole entry): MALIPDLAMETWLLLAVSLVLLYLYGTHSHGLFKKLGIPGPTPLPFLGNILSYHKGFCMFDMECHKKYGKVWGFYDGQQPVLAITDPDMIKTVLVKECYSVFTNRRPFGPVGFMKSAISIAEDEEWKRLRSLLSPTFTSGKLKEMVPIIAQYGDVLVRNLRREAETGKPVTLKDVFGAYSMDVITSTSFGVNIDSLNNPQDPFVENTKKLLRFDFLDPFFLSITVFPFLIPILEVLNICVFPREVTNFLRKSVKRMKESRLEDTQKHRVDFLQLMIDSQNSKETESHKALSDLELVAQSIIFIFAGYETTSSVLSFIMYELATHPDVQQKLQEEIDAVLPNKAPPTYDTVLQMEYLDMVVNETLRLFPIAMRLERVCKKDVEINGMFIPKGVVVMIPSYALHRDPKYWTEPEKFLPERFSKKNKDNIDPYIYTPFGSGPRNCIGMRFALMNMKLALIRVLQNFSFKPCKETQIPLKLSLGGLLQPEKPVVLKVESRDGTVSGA

What is called IC50 is the concentration at which inhibition is half-maximal. In the case of `C[C@H](Oc1cc(-c2ccn(C)n2)nc(-c2noc3c2CCC[C@@]32CCCc3sc(N)c(C#N)c32)n1)[C@@H]1C[C@H](F)CN1C` [II-144], the “MBI 3A4” value in series [1] was 60%. Moreover, the results for the IC50 in series [2] and in series [3] were 3 nM and 2840 nM, respectively. As for `C[C@H](Oc1cc(-n2cc3ccn(C[C@H]4CCOC4)c(=O)c3n2)nc(-c2noc3c2CCC[C@@]32CCCc3sc(N)c(C#N)c32)n1)[C@@H]1CCCN1C` [II-204], the results for the IC50 in series [2] and in series [3] were 1 nM and 46 nM, respectively. `C[C@H](Oc1cc([C@H]2CCNC2)nc(-c2noc3c2CCC[C@@]32CCCc3sc(N)c(C#N)c32)n1)[C@@H]1CCCN1C` [II-163]: the values for the half-maximal inhibitory concentration (IC50) in series [2] and in series [3] were 2 nM and 1090 nM, respectively. For `CO[C@H]1CCN(C)[C@@H]1[C@H](C)Oc1cc(-n2ccc(C(=O)N(C)C3COC3)n2)nc(-c2noc3c2CCC[C@@]32CCCc3sc(N)c(C#N)c32)n1` [II-199] the same measures were 1 nM and 34 nM. In series [3], `C[C@H](Oc1cc(-n2nccc2-c2ccncc2)nc(-c2noc3c2CCC[C@@]32CCCc3sc(N)c(C#N)c32)n1)[C@@H]1CCCN1C` [II-131] came in with a half-maximal inhibitory concentration (IC50) of 225 nM. As to `CO[C@H]1CCN(C)[C@@H]1[C@H](C)Oc1cc(-n2ccc(C(=O)N[C@@H]3CCOC3)n2)nc(-c2noc3c2CCC[C@@]32CCCc3sc(N)c(C#N)c32)n1` [II-197], the IC50 is 1 nM in series [2] and 14 nM in series [3].

Take `CO[C@H]1CCN(C)[C@@H]1[C@H](C)Oc1cc(N2CCN(C)C3(CC3)C2)nc(-c2noc3c2CCC[C@@]32CCCc3sc(N)c(C#N)c32)n1` [II-186]: the IC50 in series [2] stood at 3 nM; in series [3], 357 nM. Consider `C[C@H](Oc1cc(-n2ccc(-c3cn(CC4(C)COC4)nn3)n2)nc(-c2noc3c2CCC[C@@]32CCCc3sc(N)c(C#N)c32)n1)[C@@H]1CCCN1C` [II-213], for which the half-maximal inhibitory concentration (IC50) in series [2] came to 2 nM; in series [3] it was 117 nM. For `COCCNC(=O)c1ccn(-c2cc(O[C@@H](C)[C@@H]3[C@@H](OC)CCN3C)nc(-c3noc4c3CCC[C@@]43CCCc4sc(N)c(C#N)c43)n2)n1` [II-200] the same measures were 1 nM and 15 nM.

As to `C[C@H](Oc1cc(N2CC3COCC(C2)N3)nc(-c2noc3c2CCC[C@@]32CCCc3sc(N)c(C#N)c32)n1)[C@@H]1CCCN1C` [II-160], the half-maximal inhibitory concentration (IC50) in series [2] was 7 nM; in series [3] it was 7610 nM. `C[C@H]1CNCCCN1c1cc(-c2ccn(C)n2)nc(-c2noc3c2CCC[C@@]32CCCc3sc(N)c(C#N)c32)n1` [II-140]: the IC50 in series [2] is 5 nM; in series [3], 5490 nM.

Consider `CO[C@H]1CCN(C)[C@@H]1[C@H](C)Oc1cc(-n2ccc(C(=O)N[C@H]3CCOC3)n2)nc(-c2noc3c2CCC[C@@]32CCCc3sc(N)c(C#N)c32)n1` [II-198], for which the IC50 in series [2] worked out at 1 nM; in series [3], 25 nM. For `C[C@H](Oc1cc(-n2cc3ccn([C@H]4CCOC4)c(=O)c3n2)nc(-c2noc3c2CCC[C@@]32CCCc3sc(N)c(C#N)c32)n1)[C@@H]1CCCN1C` [II-202] the same measures were 1 nM and 103 nM. For `CO[C@@H]1C[C@@H]([C@H](C)Oc2cc(N3CCNC4(CC4)C3)nc(-c3noc4c3CCC[C@@]43CCCc4sc(N)c(C#N)c43)n2)N(C)C1` [II-187] the same measures were 2 nM and 429 nM. For `C[C@H](Oc1cc(-n2cc3ccn([C@@H](C)c4ccccn4)c(=O)c3n2)nc(-c2noc3c2CCC[C@@]32CCCc3sc(N)c(C#N)c32)n1)[C@@H]1CCCN1C` [II-205] the same measures were 2 nM and 22 nM. `CCN1CCN(c2cc(O[C@@H](C)[C@@H]3C[C@@H](F)CN3C)nc(-c3noc4c3CCC[C@@]43CCCc4sc(N)c(C#N)c43)n2)CC12CC2` [II-185]: the 50% inhibitory concentration (IC50) turned out to be 21 nM in series [2] and 714 nM in series [3]. For `CO[C@H]1CCN(C)[C@@H]1[C@H](C)Oc1cc(-n2ccc(C(N)=O)n2)nc(-c2noc3c2CCC[C@@]32CCCc3sc(N)c(C#N)c32)n1` [II-201] the same measures were 1 nM and 33 nM. In series [2], `C[C@H]1CNCCCN1c1nc(-c2onc3c2CCC[C@@]32CCCc3sc(N)c(C#N)c32)cc(C(F)(F)F)n1` [I-15] registered a 50% inhibitory concentration (IC50) of 299 nM. This lies in the sub-micromolar range.

Turning to `C[C@H](Oc1cc(N2CCOC2=O)nc(-c2noc3c2CCC[C@@]32CCCc3sc(N)c(C#N)c32)n1)[C@@H]1CCCN1C` [II-143], the values for the half-inhibitory concentration (IC50) in series [2] and in series [3] were 2 nM and 96 nM, respectively. Consider `COc1c(O[C@@H](C)[C@@H]2CCCN2C)nc(-c2noc3c2CCC[C@@]32CCCc3sc(N)c(C#N)c32)nc1-n1ccc(C(N)=O)n1` [II-159], for which the IC50 in series [2] turned out to be 2 nM; in series [3], 356 nM. Consider `C[C@H](Oc1cc(N2C[C@@H]3[C@@H](N)[C@@H]3C2)nc(-c2noc3c2CCC[C@@]32CCCc3sc(N)c(C#N)c32)n1)[C@@H]1CCCN1C` [II-167], for which the figures for the IC50 in series [2] and in series [3] were 5 nM and 6430 nM, respectively. With `C[C@H](NC(=O)c1ccn(-c2cc(O[C@@H](C)[C@@H]3CCCN3C)nc(-c3noc4c3CCC[C@@]43CCCc4sc(N)c(C#N)c43)n2)n1)c1ccccn1` [II-191], the 50% inhibitory concentration (IC50) in series [2] came out at 2 nM; in series [3], 13 nM. For `C[C@H](Oc1cc(-n2ccc(C(=O)N(C)C3COC3)n2)nc(-c2noc3c2CCC[C@@]32CCCc3sc(N)c(C#N)c32)n1)[C@@H]1CCCN1C` [II-194] the same measures were 1 nM and 13 nM. For `C[C@H](Oc1cc(-n2ccc(-c3cn([C@@H]4CCOC4)nn3)n2)nc(-c2noc3c2CCC[C@@]32CCCc3sc(N)c(C#N)c32)n1)[C@@H]1CCCN1C` [II-211] the same measures were 2 nM and 40 nM. For `CO[C@H]1CCN(C)[C@@H]1[C@H](C)Oc1cc(N2CCNC3(CC3)C2)nc(-c2noc3c2CCC[C@@]32CCCc3sc(N)c(C#N)c32)n1` [II-184] the same measures were 2 nM and 325 nM. As to `C[C@H](Oc1cc(-n2ccc(-c3cn([C@H]4CCOC4)nn3)n2)nc(-c2noc3c2CCC[C@@]32CCCc3sc(N)c(C#N)c32)n1)[C@@H]1CCCN1C` [II-212], the IC50 turned out to be 2 nM in series [2] and 35 nM in series [3]. For `C[C@H](Oc1cc(-n2cc3ccn(C4CCOCC4)c(=O)c3n2)nc(-c2noc3c2CCC[C@@]32CCCc3sc(N)c(C#N)c32)n1)[C@@H]1CCCN1C` [II-206] the same measures were 2 nM and 31 nM. Molecule `C[C@H](Oc1cc(-c2cn(C)nn2)nc(-c2onc3c2CCC[C@@]32CCCc3sc(N)c(C#N)c32)n1)[C@@H]1CCCN1C` [I-16] yielded an IC50 in series [2] of 2 nM. Take `CC(C)[C@@H]1CN(c2cc(O[C@@H](C)[C@@H]3CCCN3C)nc(-c3noc4c3CCC[C@@]43CCCc4sc(N)c(C#N)c43)n2)CCN1` [II-166]: the figures for the concentration for half-maximal inhibition (IC50) in series [2] and in series [3] were 8 nM and 863 nM, respectively. `C[C@H](Oc1cc(-n2cc3ccn([C@@H]4CCOC4)c(=O)c3n2)nc(-c2noc3c2CCC[C@@]32CCCc3sc(N)c(C#N)c32)n1)[C@@H]1CCCN1C` [II-203]: the IC50 in series [2] is 2 nM; in series [3], 70 nM.

As for `CO[C@H]1CCN(C)[C@@H]1[C@H](C)Oc1cc(-n2ccc(CC(=O)NC(C)C)n2)nc(-c2noc3c2CCC[C@@]32CCCc3sc(N)c(C#N)c32)n1` [II-183], the IC50 in series [2] is 2 nM; in series [3] it was 9 nM. For `CO[C@@H]1C[C@@H]([C@H](C)Oc2cc(-c3cnn(C)n3)nc(-c3onc4c3CCC[C@@]43CCCc4sc(N)c(C#N)c43)n2)N(C)C1` [I-17] the same measures were 4 nM and 730 nM.

As to `CC(C)NC(=O)Cc1ccn(-c2cc(O[C@@H](C)[C@@H]3CCCN3C)nc(-c3noc4c3CCC[C@@]43CCCc4sc(N)c(C#N)c43)n2)n1` [II-182], the 50% inhibitory concentration (IC50) amounted to 1 nM in series [2] and 38 nM in series [3]. Regarding `C[C@@H]1CN(c2cc(O[C@@H](C)[C@@H]3CCCN3C)nc(-c3noc4c3CCC[C@@]43CCCc4sc(N)c(C#N)c43)n2)CCN1` [II-161], the values for the half-inhibitory concentration (IC50) in series [2] and in series [3] were 5 nM and 472 nM, respectively. For `C[C@H]1CNCCCN1c1cc(-n2ccnc2)nc(-c2noc3c2CCC[C@@]32CCCc3sc(N)c(C#N)c32)n1` [II-142], the IC50 came out at 5 nM in series [2] and 2640 nM in series [3].

With `C[C@H](Oc1cc(-n2cc3c(n2)CNC3)nc(-c2noc3c2CCC[C@@]32CCCc3sc(N)c(C#N)c32)n1)[C@@H]1C[C@@H](F)CN1C` [II-154], the IC50 was 2 nM in series [2] and 904 nM in series [3]. For `[2H]C([2H])([2H])N1C[C@H](F)C[C@H]1[C@H](C)Oc1cc(N2CCN(C([2H])([2H])[2H])C3(CC3)C2)nc(-c2noc3c2CCC[C@@]32CCCc3sc(N)c(C#N)c32)n1` [II-207] the same measures were 6 nM and 310 nM. As for `CC(=O)N1CCN(c2cc(O[C@@H](C)[C@@H]3CCCN3C)nc(-c3noc4c3CCC[C@@]43CCCc4sc(N)c(C#N)c43)n2)CC12CC2` [II-178], the IC50 was 2 nM in series [2] and 624 nM in series [3].

Turning to `C[C@H](Oc1cc(N2Cc3cnn(C)c3C2)nc(-c2onc3c2CCC[C@@]32CCCc3sc(N)c(C#N)c32)n1)[C@@H]1CCCN1C` [I-19], the IC50 in series [2] was determined as 2 nM; in series [3], 479 nM. Turning to `CNC1CCN(c2cc(O[C@@H](C)[C@@H]3CCCN3C)nc(-c3noc4c3CCC[C@@]43CCCc4sc(N)c(C#N)c43)n2)CC1` [II-214], the half-inhibitory concentration (IC50) in series [2] worked out at 9 nM.
